From US20160235807A1, “AGONISTS OF GUANYLATE CYCLASE USEFUL FOR DOWNREGULATION OF PRO-INFLAMMATORY CYTOKINES” (SYNERGY PHARMACEUTICALS, INC., priority 2013, published 2016)
Entries after “also recorded” stand apart in the source; their conditions may differ. Bridge positions count the residues as written; N and C are the ends. Square brackets hold non-standard residues; d marks the D form. Peptide text beside a SMILES is read from it.

Columns and labels:
[1] = tested on: myeloperoxidase (MPO) activity in colon tissues; experiment: MPO activity in lysates from mid-colon tissues, DSS-induced colitis in BDF-1 mice; type: in vivo, mouse
Protocol: A total of 40 samples were chosen for analysis of MPO activity and Ki-67 labeling from the treatment groups that received SP-333, its vehicle control (0.1M phosphate buffer, pH 7) and the reference compound (5-ASA). A random number generator (www.random.org) was employed to select samples from these groups (7 from each of the SP-333-recipient groups and 6 from each of the vehicle and 5-ASA groups).
Myeloperoxidase activity in colonic tissue samples was performed according to the method described (Krawisc et al., 1984). Briefly, the rate of change in absorbance at 450 nm was recorded when 20 μl of tissue extract was incubated with […] of reaction buffer containing 0.26 mg/ml 0-dianisidine and 0.6 μl/ml H2O2. Each reaction was performed in triplicate. The rate of reaction was determined (initial slope) and normalized to protein concentration of sample.

[2] = tested on: T84 cells; experiment: MicroRNA microarray analysis of SP-333 treated T84 cells; type: cell-based, human; conditions: T84, 1 μM, 5 h
Protocol: T84 cells were grown to confluence in 100 mm tissue culture dishes. Cells were treated with pre-determined concentration of SP-333 (1 μM) in the presence of phosphodiesterase inhibitor, zaprinast (500 μM; Sigma Aldrich) for 5 hours. Following treatment, cells were trypsinized and the sample was divided into 3 aliquots. One aliquot was used to determine total cGMP. Another was used for extracting total RNA. The last aliquot was used to extract and purify miRNAs using Norgen's Kit (Norgen BioteK). Briefly, cells were lysed using lysis buffer, passed through a column to remove large RNA, followed by capturing miRNA using microRNA enrichment column. Purified samples were stored at −20° C. MicroRNAs were profiled on a LC Sciences microarray chip and TaqMan Open Array Human miRNA panel.

[3] = Table 8: downregulated under NF-κB
[4] = Table 8: upregulated under NF-κB

With `CC(C)C[C@@H]1NC(=O)[C@H](CCC(=O)O)NC(=O)[C@@H](NC(=O)[C@H](CCC(=O)O)NC(=O)[C@H](CC(=O)O)NC(=O)[C@H](N)CC(N)=O)CSSC[C@@H]2NC(=O)[C@H](C)NC(=O)[C@H](C(C)C)NC(=O)[C@H](CC(N)=O)NC(=O)[C@H](C(C)C)NC(=O)[C@H](CSSC[C@@H](C(=O)N[C@H](CC(C)C)C(=O)O)NC(=O)CNC(=O)[C@H]([C@@H](C)O)NC2=O)NC1=O` [SP-333, dAsn^1-Asp^2-Glu^3-Cys^4-Glu^5-Leu^6-Cys^7-Val^8-Asn^9-Val^10-Ala^11-Cys^12-Thr^13-Gly^14-Cys^15-dLeu^16] (H-[dN]DECELCVNVACTGC[dL]-OH; disulfide 4-12, 7-15; N-terminus and C-terminus assumed) the “reduction of MPO activity” value ([1]; SP-333 0.05 mg/kg) was ~50%, the MPO activity ([1]; SP-333 0.05 mg/kg, p=0.001 vs DSS group (0.048±0.004)) was 0.024±0.003 units/minute and the “MPO activity compared to DSS treated animals” value ([1]; SP-333 all doses, significant (p<0.05) except 0.5 mg/kg) was “significantly lower; also recorded: considerably reduced; also recorded: much lower”. The miR-133b level ([2]; Table 8: downregulated in CRC) was “increase”, the miR-139-5p level ([2]; Table 8: downregulated in CRC) was “increase” and the miR-133a level ([2]; Table 8: downregulated in CRC, p<0.01) was “increase”. The miR-218 level [2, 3] was “increase”, the miR-223 level [2, 3] was “increase” and the mir-29b level [2, 3] was “increase”. For the same compound, the miR-16 level ([2]; Table 8: downregulated under NF-κB, p<0.01) was “upregulated; also recorded: increase”, the miR-15a level ([2]; Table 8: downregulated under NF-κB, p<0.05) was “upregulated; also recorded: increase” and the miR-92 level ([2]; Table 8: upregulated in CRC) was “decrease”. The miR-26b level ([2]; Table 8: upregulated in IBD) was “decrease”, the miR-28-5p level ([2]; Table 8: upregulated in IBD) was “decrease” and the miR-98 level ([2]; Table 8: upregulated in IBD) was “decrease”. The miR-99a level ([2]; Table 8: upregulated in IBD) was “decrease”, the miR-203 level ([2]; Table 8: upregulated in IBD) was “decrease” and the miR-362-3p level ([2]; Table 8: upregulated in IBD) was “decrease”. For the same compound, the miR-532-3p level ([2]; Table 8: upregulated in IBD) was “decrease”, the miR-10a level [2, 4] was “decrease” and the miR-27b level [2, 4] was “decrease”. For the same compound, the miR-30b level [2, 4] was “decrease”, the miR-301 level [2, 4] was “decrease” and the miR-199-3p level ([2]; Table 8: upregulated under NF-κB and cMyc) was “decrease”. For the same compound, the miR-224 level ([2]; Table 8: upregulated under cMyc) was “decrease”, the miR-125b level ([2]; p<0.001) was “upregulated” and the let-7i level ([2]; p<0.005) was “upregulated”. The miR-494 level ([2]; p<0.005) was “reduced”, the “miR-41-3p level (negative regulator of c-Src)” value ([2]; p<0.01) was “significantly increased” and the miR-200c level ([2]; p<0.01) was “reduced”. The “family of miR-29 level” value ([2]; p<0.05) was “upregulated”, the miR-30c level ([2]; p<0.05) was “increased” and the miR-92a level ([2]; p<0.05) was “reduced”.
